# Test results published in patent US11918662B2, “Heterocyclic compounds and imaging agents for imaging huntingtin protein” (CHDI Foundation, Inc., priority 2020, dated 2024).
# Molecular target: T1, MBP-HTT(1-89)Q46-His(6×) (“Exon1-Q46”) protein aggregates (Homo sapiens, UniProt P42858, INS38QQQQQQQQQQQQQQQQQQQQQQQQQ)
# T1 construct: MBP-HTT(1-89)Q46-His(6×); His(6×) (C); made in house
# Test: Exon1-Q46 Radioligand Binding Assay
# Conditions: displacement of 0.3 nM [3H3-methyl]-5-((5-methoxypyridin-2-yl)methoxy)-2-(pyrazin-2-yl)benzo[d]oxazole from 1 μM aggregated Exon1-Q46, 60 minutes at 37° C.; read-out: Potency Range (IC50)
# Procedure: Exon1-Q46 Radioligand Binding Assay
# For experiments 30 μM MBP-Exon1-Q46 was incubated with 150 μg/mL thrombin in assay buffer (150 mM NaCl, 50 mM Tris pH 8.0) and 2 mM CaCl2 for 16 hours at 37° C. Aggregated Exon1-Q46 was pelleted by centrifugation for 5 minutes at 13,000 rpm in a bench top centrifuge and re-dissolved in the same volume of assay buffer. […] For the RBA, Q46 protein aggregates and test compounds were pre-incubated in assay buffer for 20 minutes at room temperature, in 100 μL/well in a 96-well plate (pp, round bottom). Then, ligand was added in 50 μL/well and incubated for 60 minutes at 37° C. Final assay concentrations were […] test compound, 1 μM Exon1-Q46 protein (equivalent monomer concentration) and 0.3 nM ligand [^3H3-methyl]-5-((5-methoxypyridin-2-yl)methoxy)-2-(pyrazin-2-yl)benzo[d]oxazole. Samples were transferred onto GF/B filter plates and washed 2× with 200 μL PBS using a Filtermate Harvester. After drying filter plates for 1 hour at 55° C., the back of the plates were sealed with foil and 30 μL/well scintillation fluid (Packard MicroScint 40) added, incubated for 15 minutes in the dark and counted in a MicroBeta reader. […] IC50 values were determined with a sigmoidal inhibition model with four variables (top, bottom, slope, IC50) in a global fit using the normalized replicate data.
# T1 sequence (P42858 with tags, fused parts or gaps with the stated changes limits assumed): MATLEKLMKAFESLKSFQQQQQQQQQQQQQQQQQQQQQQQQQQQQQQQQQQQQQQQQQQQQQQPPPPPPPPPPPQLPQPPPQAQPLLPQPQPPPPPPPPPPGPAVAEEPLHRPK
row,Compound,IC50
1,"COc1ccc(NC(=O)[C@H]2CC[C@@H]2n2c(=O)c3cccn3c3ccccc32)nc1 (racemic) [Example 17-1, (1SR,2SR)—N-(5-Methoxypyridin-2-yl)-2-{4-oxo-4H,5H-pyrrolo[1,2-a]quinoxalin-5-yl}cyclobutane-1-carboxamide]",< 100 nM
2,"C[C@@H]1CN(C(=O)CCCn2c(=O)c3cccn3c3ccc(F)cc32)C[C@@H](C)O1 [Example 1-1, 5-{4-[(2R,6R)-2,6-Dimethylmorpholin-4-yl]-4-oxobutyl}-7-fluoro-4H,5H-pyrrolo[1,2-a]quinoxalin-4-one]",< 100 nM
3,C[C@@H]1C[C@H](C)CN(C(=O)CCCn2c(=O)c3cccn3c3ccc(F)cc32)C1 [Example 1-2],< 100 nM
4,C[C@H]1C[C@H](C)CN(C(=O)CCCn2c(=O)c3cccn3c3ccc(F)cc32)C1 [Example 1-3],< 100 nM
5,C[C@H]1CN(C(=O)CCCn2c(=O)c3cccn3c3ccc(F)cc32)C[C@H](C)O1 [Example 1-4],< 100 nM
6,C[C@@H]1CN(C(=O)CCCn2c(=O)c3cccn3c3ccc(F)cc32)C[C@H](C)O1 [Example 1-5],< 100 nM
7,O=C(CCCn1c(=O)c2cccn2c2ccc(F)cc21)Nc1ccccn1 [Example 1-6],< 100 nM
8,O=C(CCCn1c(=O)c2cccn2c2ccc(F)cc21)NCc1cccnc1 [Example 1-7],100 to 500 nM
9,O=C(CCCn1c(=O)c2cccn2c2ccc(F)cc21)N1CCc2ccccc2C1 [Example 1-8],< 100 nM
10,O=C(CCCn1c(=O)c2cccn2c2ccc(F)cc21)Nc1ccccc1 [Example 1-9],< 100 nM
11,Cc1ccc(NC(=O)CCCn2c(=O)c3cccn3c3ccc(F)cc32)cc1 [Example 1-10],< 100 nM
12,Cc1cccc(NC(=O)CCCn2c(=O)c3cccn3c3ccc(F)cc32)c1 [Example 1-11],< 100 nM
13,COc1ccc(NC(=O)CCCn2c(=O)c3cccn3c3ccc(F)cc32)cc1 [Example 1-12],< 100 nM
14,O=C(CCCn1c(=O)c2cccn2c2ccc(F)cc21)N1Cc2ccccc2C1 [Example 1-13],< 100 nM
15,COc1cccc(NC(=O)CCCn2c(=O)c3cccn3c3ccc(F)cc32)c1 [Example 1-14],< 100 nM
16,O=C(CCCn1c(=O)c2cccn2c2ccc(F)cc21)NCc1ccccc1 [Example 1-15],< 100 nM
17,O=C(CCCn1c(=O)c2cccn2c2ccc(F)cc21)Nc1ccncc1 [Example 1-16],< 100 nM
18,COc1ccccc1NC(=O)CCCn1c(=O)c2cccn2c2ccc(F)cc21 [Example 1-17],< 100 nM
19,O=C(CCCn1c(=O)c2cccn2c2ccc(F)cc21)NCCc1cccnc1 [Example 1-18],< 100 nM
20,O=C(CCCn1c(=O)c2cccn2c2ccc(F)cc21)NCC1CCCCC1 [Example 1-19],< 100 nM
21,O=C(CCCn1c(=O)c2cccn2c2ccc(F)cc21)NCCc1ccccc1 [Example 1-20],< 100 nM
22,Cc1ccccc1NC(=O)CCCn1c(=O)c2cccn2c2ccc(F)cc21 [Example 1-21],< 100 nM
23,O=C(CCCn1c(=O)c2cccn2c2ccc(F)cc21)Nc1cccc(Cl)c1 [Example 1-22],< 100 nM
24,COc1ccc(N(C)C(=O)CCCn2c(=O)c3cccn3c3ccc(F)cc32)cc1 [Example 1-23],< 100 nM

row,Compound,IC50
1,O=C(CCCn1c(=O)c2cccn2c2ccc(F)cc21)Nc1cccnc1 [Example 1-24],< 100 nM
2,O=C(CCCn1c(=O)c2cccn2c2ccc(F)cc21)Nc1ccccc1Cl [Example 1-25],< 100 nM
3,O=C(CCCn1c(=O)c2cccn2c2ccc(F)cc21)Nc1ccc(Cl)cc1 [Example 1-26],< 100 nM
4,CC(C)NC(=O)CCCn1c(=O)c2cccn2c2ccc(F)cc21 [Example 1-27],100 to 500 nM
5,O=C(CCCn1c(=O)c2cccn2c2ccc(F)cc21)NC1CCCC1 [Example 1-28],100 to 500 nM
6,CN1CCN(C(=O)CCCn2c(=O)c3cccn3c3ccc(F)cc32)CC1 [Example 1-29],100 to 500 nM
7,CN(C)CCNC(=O)CCCn1c(=O)c2cccn2c2ccc(F)cc21 [Example 1-30],500 to 10000 nM
8,COCCNC(=O)CCCn1c(=O)c2cccn2c2ccc(F)cc21 [Example 1-31],100 to 500 nM
9,COC1CCC(NC(=O)CCCn2c(=O)c3cccn3c3ccc(F)cc32)CC1 (stereo not drawn) [Example 1-32],100 to 500 nM
10,CNC(=O)CCCn1c(=O)c2cccn2c2ccc(F)cc21 [Example 1-33],100 to 500 nM
11,CCNC(=O)CCCn1c(=O)c2cccn2c2ccc(F)cc21 [Example 1-34],100 to 500 nM
12,O=C(CCCn1c(=O)c2cccn2c2ccc(F)cc21)NC1CCCCC1 [Example 1-35],100 to 500 nM
13,COC1CCN(C(=O)CCCn2c(=O)c3cccn3c3ccc(F)cc32)C1 (stereo not drawn) [Example 1-36],< 100 nM
14,O=C(CCCn1c(=O)c2cccn2c2ccc(F)cc21)N1CCC(C(F)(F)F)CC1 [Example 1-37],< 100 nM
15,O=C(CCCn1c(=O)c2cccn2c2ccc(F)cc21)N1CCCC1 [Example 1-38],< 100 nM
16,O=C(CCCn1c(=O)c2cccn2c2ccc(F)cc21)NC1CCC(C(F)(F)F)CC1 (stereo not drawn) [Example 1-39],< 100 nM
17,CN(C)C(=O)CCCn1c(=O)c2cccn2c2ccc(F)cc21 [Example 1-40],< 100 nM
18,CN1CCN(C(=O)CCCn2c(=O)c3cccn3c3ccc(F)cc32)CC1=O [Example 1-41],< 100 nM
19,COC1CCCN(C(=O)CCCn2c(=O)c3cccn3c3ccc(F)cc32)C1 (stereo not drawn) [Example 1-42],< 100 nM
20,COc1ccc(NC(=O)CCCn2c(=O)c3cccn3c3ccc(F)cc32)nc1 [Example 1-43],< 100 nM
21,COc1ccnc(NC(=O)CCCn2c(=O)c3cccn3c3ccc(F)cc32)c1 [Example 1-44],< 100 nM
22,O=C(CCCn1c(=O)c2cccn2c2ccc(F)cc21)N1CCCC(C(F)(F)F)C1 (stereo not drawn) [Example 1-45],< 100 nM
23,CC1CCC(N(C)C(=O)CCCn2c(=O)c3cccn3c3ccc(F)cc32)CC1 (stereo not drawn) [Example 1-46],< 100 nM
24,C[C@@H]1CN(C(=O)CCCn2c(=O)c3cccn3c3ccc(F)cc32)C[C@@H]1C [Example 1-47],< 100 nM

row,Compound,IC50
1,C[C@@H]1CN(C(=O)CCCn2c(=O)c3cccn3c3ccc(F)cc32)C[C@H]1C [Example 1-48],< 100 nM
2,C[C@@H]1CN(C(=O)CCn2c(=O)c3cccn3c3ccc(F)cc32)C[C@H]1C [Example 1-49],< 100 nM
3,"Cc1ccc(NC(=O)CCCn2c(=O)c3cccn3c3ccncc32)cc1 [Example 2-1, 4-(7-Oxo-2,8,11-triazatricyclo[7.4.0.0^2,6]trideca-1(9),3,5,10,12-pentaen-8-yl)-N-(p-tolyl)butanamide]",< 100 nM
4,COc1ccc(NC(=O)CCCn2c(=O)c3cccn3c3ccncc32)cc1 [Example 2-2],< 100 nM
5,COc1cccc(NC(=O)CCCn2c(=O)c3cccn3c3ccncc32)c1 [Example 2-3],< 100 nM
6,COc1ccnc(NC(=O)CCCn2c(=O)c3cccn3c3ccncc32)c1 [Example 2-4],< 100 nM
7,COc1ccc(NC(=O)CCCn2c(=O)c3cccn3c3ccncc32)nc1 [Example 2-5],< 100 nM
8,"O=C(CCn1c(=O)c2cccn2c2ccc(F)cc21)N1CCCCC1 [Example 3-1, 7-Fluoro-5-[3-oxo-3-(piperidin-1-yl)propyl]-4H,5H-pyrrolo[1,2-a]quinoxalin-4-one]",< 100 nM
9,Cc1ccc(NC(=O)CCn2c(=O)c3cccn3c3ccc(F)cc32)cc1 [Example 3-2],< 100 nM
10,COc1ccc(NC(=O)CCn2c(=O)c3cccn3c3ccc(F)cc32)cc1 [Example 3-3],< 100 nM
11,COc1ncccc1NC(=O)CCn1c(=O)c2cccn2c2ccc(F)cc21 [Example 3-4],< 100 nM
12,COc1cc(NC(=O)CCn2c(=O)c3cccn3c3ccc(F)cc32)ccn1 [Example 3-5],< 100 nM
13,COc1ccc(NC(=O)CCn2c(=O)c3cccn3c3ccc(F)cc32)nc1 [Example 3-6],< 100 nM
14,COc1cccc(NC(=O)CCn2c(=O)c3cccn3c3ccc(F)cc32)n1 [Example 3-7],< 100 nM
15,Cc1ccc(NC(=O)CCn2c(=O)c3cccn3c3ccc(F)cc32)cn1 [Example 3-8],< 100 nM
16,Cn1nc(NC(=O)CCn2c(=O)c3cccn3c3ccc(F)cc32)ccc1=O [Example 3-9],< 100 nM
17,COc1ccncc1NC(=O)CCn1c(=O)c2cccn2c2ccc(F)cc21 [Example 3-10],< 100 nM
18,COc1cncc(NC(=O)CCn2c(=O)c3cccn3c3ccc(F)cc32)c1 [Example 3-11],< 100 nM
19,COc1ccc(NC(=O)CCn2c(=O)c3cccn3c3ccc(F)cc32)cn1 [Example 3-12],< 100 nM
20,COc1ccnc(NC(=O)CCn2c(=O)c3cccn3c3ccc(F)cc32)c1 [Example 3-13],< 100 nM
21,COc1ccc(N(C)C(=O)CCn2c(=O)c3cccn3c3ccc(F)cc32)cc1 [Example 3-14],< 100 nM
22,O=C(CCn1c(=O)c2cccn2c2ccc(F)cc21)Nc1ccccc1Cl [Example 3-15],< 100 nM
23,COc1ccccc1NC(=O)CCn1c(=O)c2cccn2c2ccc(F)cc21 [Example 3-16],< 100 nM
24,COc1cccnc1NC(=O)CCn1c(=O)c2cccn2c2ccc(F)cc21 [Example 3-17],< 100 nM
